Assay results from paper PMC9696794, “Synthesis and Antimicrobial Activity of Short Analogues of the Marine Antimicrobial Peptide Turgencin A: Effects of SAR Optimizations, Cys-Cys Cyclization and Lipopeptide Modifications” (International Journal of Molecular Sciences, 2022).
≈ marks a conversion by molar mass, not a printed value. Where a SMILES comes first, the peptide text is derived from it. Bridges are numbered along the chain shown (N, C = ends).

Assays:
[1] = system: C. albicans (Ca, ATCC 10231); test: microbe, parasite or virus in culture; assay type: cell-based, Candida albicans; settings: ATCC 10231, 48 h
Procedure, shortened: (§1)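 Overnight cultures in potato dextrose broth with 2% glucose at 25–30 °C were diluted to approx. 4 × 10^5 spores/mL and mixed 1:1 with two-fold peptide dilutions plated at 256 to 1 µg/mL. After 48 h at room temperature, OD600 was read. MIC was the lowest concentration giving OD below 10% of the growth control, in triplicate.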

[2] = system: B. subtilis (Bs, ATCC 23857); test: microbe, parasite or virus in culture; assay type: cell-based, Bacillus subtilis; settings: ATCC 23857, 24 h
Procedure, shortened: (§2)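 Cultures grown in Mueller–Hinton broth were adjusted by OD600 to 2.5–3 × 10^4 CFU/mL and mixed with two-fold peptide dilutions from 256 to 1 µg/mL. Plates were incubated at 35 °C with OD595 monitored every hour for 24 h.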

[3] = system: P. aeruginosa (Pa, ATCC 27853); test: microbe, parasite or virus in culture; assay type: cell-based, Pseudomonas aeruginosa; settings: ATCC 27853, 24 h
Procedure, shortened: as §2

[4] = system: all bacterial strains; test: Antibacterial MIC assay, all bacterial strains together (range or geometric mean); assay type: cell-based; settings: for GM (geometric mean of the MIC values against all bacterial strains): Table 1, six bacterial strains; for GM of MIC Tot. bact.: Table S3, all bacterial test strains, MIC >256 set to 256
Procedure, shortened: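 Broth microdilution in Mueller–Hinton broth against B. subtilis, C. glutamicum, S. aureus, S. epidermidis RP62A, E. coli and P. aeruginosa; inoculum 2.5–3 × 10^4 CFU/mL, 35 °C, OD595 read hourly for 24 h. MIC: lowest peptide concentration giving OD below 10% of growth control; geometric mean across strains, triplicate.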

[5] = system: S. epidermidis RP62A (Se, ATCC 35984); test: microbe, parasite or virus in culture; assay type: cell-based, Staphylococcus epidermidis; settings: ATCC 35984, 24 h
Procedure, shortened: as §2

[6] = system: Gram-negative bacterial strains (E. coli and P. aeruginosa); test: Antibacterial MIC assay, Gram-negative strains together (range or geometric mean); assay type: cell-based; settings: Table S3; MIC >256 set to 256
Procedure, shortened: as §2

[7] = system: E. coli MC4100 (wild type, WT); test: microbe, parasite or virus in culture; settings: wild type
Procedure, shortened: (§3)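 Broth microdilution in Mueller–Hinton medium, 2.5–3 × 10^4 CFU/mL inoculum, two-fold peptide dilutions from 256 to 1 µg/mL, 35 °C with OD595 read hourly for 24 h. MIC is the lowest concentration giving OD below 10% of the untreated growth control; run in triplicate.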

[8] = system: E. coli NR698 (outer membrane permeable mutant, imp4213); test: microbe, parasite or virus in culture; settings: MC4100 NR698 imp4213, deficient outer membrane
Procedure, shortened: as §3

[9] = system: S. aureus (Sa, ATCC 9144); test: microbe, parasite or virus in culture; assay type: cell-based, Staphylococcus aureus; settings: ATCC 9144, 24 h
Procedure, shortened: as §2

[10] = system: fungi (A. pullulans, C. albicans, Rhodotorula sp.); test: Antifungal MIC assay, all fungi together (range or geometric mean); assay type: cell-based; settings: Table S3; MIC >128 set to 128
Procedure, shortened: as §1

[11] = system: E. coli (Ec, ATCC 25922); test: microbe, parasite or virus in culture; assay type: cell-based, Escherichia coli; settings: ATCC 25922, 24 h
Procedure, shortened: as §2

[12] = system: A. pullulans (Ap); test: microbe, parasite or virus in culture; assay type: cell-based, Aurobasidium pollulans; settings: 48 h
Procedure, shortened: as §1

[13] = system: Gram-positive bacterial strains; settings: for GM of MIC G+: Table S3, MIC >256 set to 256
Procedure, shortened: as §2

[14] = system: Rhodotorula sp. (Rh); test: microbe, parasite or virus in culture; assay type: cell-based; settings: 48 h
Procedure, shortened: as §1

[15] = system: human red blood cells (RBC); test: Haemolytic activity assay; assay type: cell-based; settings: for Selectivity index (SI) G- / Selectivity index (SI) G+ / Selectivity index (SI) Fungi: Table S3, highest tested concentration used where EC50 above it; for Selectivity index (SI) G-: EC50/GM of Gram-negative strains; for Selectivity index (SI) G+: EC50/GM of Gram-positive strains; for Selectivity index (SI) Fungi: EC50/GM of fungi; for SI (selectivity index = EC50/GM): haemolytic EC50 over GM of MIC against all bacterial strains, Table 1; for RBC Tox. (EC50), haemolytic activity: human RBC, 1 h, 37 °C, concentration giving 50% haemolysis
Procedure, shortened: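 Washed human erythrocytes (1% hematocrit final) incubated 1 h at 37 °C with agitation with lipopeptides at 500–3.9 μM in PBS (≤1% DMSO), duplicates. Haemoglobin release read at 545 nm relative to 0.1% Triton X-100; EC50 is 50% haemolysis, averaged from three experiments.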

[16] = system: C. glutamicum (Cg, ATCC 13032); test: microbe, parasite or virus in culture; assay type: cell-based, Corynebacterium glutamicum; settings: ATCC 13032, 24 h
Procedure, shortened: as §2

CC(C)C[C@H](NC(=O)[C@H](CCCCN)NC(=O)[C@@H]1CSSC[C@H](N)C(=O)NCC(=O)N[C@@H](CCCCN)C(=O)N[C@@H](CCCCN)C(=O)N[C@@H](Cc2c[nH]c3ccccc23)C(=O)NCC(=O)N[C@@H](Cc2c[nH]c3ccccc23)C(=O)N[C@@H](Cc2c[nH]c3ccccc23)C(=O)N[C@@H](CCCCN)C(=O)N1)C(N)=O [cTurg-3] (H-CGKKWGWWKCKL-NH2; disulfide 1-10; N-terminus assumed)
Antimicrobial Activity (MIC) Fungi Ca [1]: 32 µg/mL | Antimicrobial Activity (MIC) Gram + Bs [2]: 4 µg/mL | Antimicrobial Activity (MIC) Gram − Pa [3]: 128 µg/mL | GM (geometric mean of the MIC values against all bacterial strains) [4]: 18 µg/mL | GM of MIC Tot. bact. [4]: 18 µg/mL | Antimicrobial Activity (MIC) Gram + Se [5]: 16 µg/mL | GM of MIC G- [6]: 64 µg/mL | MIC E. coli MC4100 (WT) [7]: 16 µg/mL (≈ 10.5 µM) | MIC E. coli NR698 (mutant) [8]: 8 µg/mL (≈ 5.26 µM) | Antimicrobial Activity (MIC) Gram + Sa [9]: 32 µg/mL | GM of MIC Fungi [10]: 32 µg/mL | Antimicrobial Activity (MIC) Gram − Ec [11]: 32 µg/mL | Antimicrobial Activity (MIC) Fungi Ap [12]: 32 µg/mL | GM of MIC G+ [13]: 10 µg/mL | Antimicrobial Activity (MIC) Fungi Rh [14]: 32 µg/mL | Selectivity index (SI) G- [15]: 13 | Selectivity index (SI) G+ [15]: 89 | Selectivity index (SI) Fungi [15]: 27 | SI (selectivity index = EC50/GM) [15]: 47 | RBC Tox. (EC50), haemolytic activity [15]: 849 µg/mL | Antimicrobial Activity (MIC) Gram + Cg [16]: 4 µg/mL

CC(C)C[C@H](NC(=O)[C@H](CCCCN)NC(=O)[C@@H]1CSSC[C@H](N)C(=O)NCC(=O)N[C@@H](CCCCN)C(=O)N[C@@H](CCCCN)C(=O)N2CCC[C@H]2C(=O)N[C@@H](Cc2c[nH]c3ccccc23)C(=O)N[C@@H](Cc2c[nH]c3ccccc23)C(=O)N[C@@H](Cc2c[nH]c3ccccc23)C(=O)N[C@@H](CCCCN)C(=O)N1)C(N)=O [cTurg-4] (H-CGKKPWWWKCKL-NH2; disulfide 1-10; N-terminus assumed)
Antimicrobial Activity (MIC) Fungi Ca [1]: 64 µg/mL | Antimicrobial Activity (MIC) Gram + Bs [2]: 8 µg/mL | Antimicrobial Activity (MIC) Gram − Pa [3]: 256 µg/mL | GM (geometric mean of the MIC values against all bacterial strains) [4]: 32 µg/mL | GM of MIC Tot. bact. [4]: 32 µg/mL | Antimicrobial Activity (MIC) Gram + Se [5]: 32 µg/mL | GM of MIC G- [6]: 128 µg/mL | MIC E. coli MC4100 (WT) [7]: 16 µg/mL (≈ 10.3 µM) | MIC E. coli NR698 (mutant) [8]: 8 µg/mL (≈ 5.13 µM) | Antimicrobial Activity (MIC) Gram + Sa [9]: 64 µg/mL | GM of MIC Fungi [10]: 40 µg/mL | Antimicrobial Activity (MIC) Gram − Ec [11]: 64 µg/mL | Antimicrobial Activity (MIC) Fungi Ap [12]: 32 µg/mL | GM of MIC G+ [13]: 16 µg/mL | Antimicrobial Activity (MIC) Fungi Rh [14]: 32 µg/mL | Selectivity index (SI) G- [15]: > 8 | Selectivity index (SI) G+ [15]: > 67 | Selectivity index (SI) Fungi [15]: > 26 | SI (selectivity index = EC50/GM) [15]: >33 | Antimicrobial Activity (MIC) Gram + Cg [16]: 4 µg/mL

CC(C)C[C@H](NC(=O)[C@H](CCCNC(=N)N)NC(=O)[C@@H]1CSSC[C@H](N)C(=O)NCC(=O)N[C@@H](CCCNC(=N)N)C(=O)N[C@@H](CCCNC(=N)N)C(=O)N[C@@H](Cc2c[nH]c3ccccc23)C(=O)N[C@@H](Cc2c[nH]c3ccccc23)C(=O)NCC(=O)N[C@@H](Cc2c[nH]c3ccccc23)C(=O)N[C@@H](CCCNC(=N)N)C(=O)N1)C(N)=O [cTurg-5] (H-CGRRWWGWRCRL-NH2; disulfide 1-10; N-terminus assumed)
Antimicrobial Activity (MIC) Fungi Ca [1]: 32 µg/mL | Antimicrobial Activity (MIC) Gram + Bs [2]: 8 µg/mL | Antimicrobial Activity (MIC) Gram − Pa [3]: 16 µg/mL | GM (geometric mean of the MIC values against all bacterial strains) [4]: 9 µg/mL | GM of MIC Tot. bact. [4]: 9 µg/mL | Antimicrobial Activity (MIC) Gram + Se [5]: 8 µg/mL | GM of MIC G- [6]: 11 µg/mL | MIC E. coli MC4100 (WT) [7]: 8 µg/mL (≈ 4.9 µM) | MIC E. coli NR698 (mutant) [8]: 8 µg/mL (≈ 4.9 µM) | Antimicrobial Activity (MIC) Gram + Sa [9]: 16 µg/mL | GM of MIC Fungi [10]: 32 µg/mL | Antimicrobial Activity (MIC) Gram − Ec [11]: 8 µg/mL | Antimicrobial Activity (MIC) Fungi Ap [12]: 32 µg/mL | GM of MIC G+ [13]: 8 µg/mL | Antimicrobial Activity (MIC) Fungi Rh [14]: 32 µg/mL | Selectivity index (SI) G- [15]: > 97 | Selectivity index (SI) G+ [15]: > 138 | Selectivity index (SI) Fungi [15]: > 34 | SI (selectivity index = EC50/GM) [15]: >123 | RBC Tox. (EC50), haemolytic activity [15]: >1101 µg/mL | Antimicrobial Activity (MIC) Gram + Cg [16]: 4 µg/mL

CC(C)C[C@H](NC(=O)[C@H](CCCNC(=N)N)NC(=O)[C@@H]1CSSC[C@H](N)C(=O)NCC(=O)N[C@@H](CCCNC(=N)N)C(=O)N[C@@H](CCCNC(=N)N)C(=O)N[C@@H](Cc2c[nH]c3ccccc23)C(=O)NCC(=O)N[C@@H](Cc2c[nH]c3ccccc23)C(=O)N[C@@H](Cc2c[nH]c3ccccc23)C(=O)N[C@@H](CCCNC(=N)N)C(=O)N1)C(N)=O [cTurg-6] (H-CGRRWGWWRCRL-NH2; disulfide 1-10; N-terminus assumed)
Antimicrobial Activity (MIC) Fungi Ca [1]: 32 µg/mL | Antimicrobial Activity (MIC) Gram + Bs [2]: 4 µg/mL | Antimicrobial Activity (MIC) Gram − Pa [3]: 16 µg/mL | GM (geometric mean of the MIC values against all bacterial strains) [4]: 8 µg/mL | GM of MIC Tot. bact. [4]: 8 µg/mL | Antimicrobial Activity (MIC) Gram + Se [5]: 8 µg/mL | GM of MIC G- [6]: 11 µg/mL | MIC E. coli MC4100 (WT) [7]: 8 µg/mL (≈ 4.9 µM) | MIC E. coli NR698 (mutant) [8]: 8 µg/mL (≈ 4.9 µM) | Antimicrobial Activity (MIC) Gram + Sa [9]: 16 µg/mL | GM of MIC Fungi [10]: 32 µg/mL | Antimicrobial Activity (MIC) Gram − Ec [11]: 8 µg/mL | Antimicrobial Activity (MIC) Fungi Ap [12]: 32 µg/mL | MIC against the Gram-positive bacterial strains ([13]; 2 h): 4 to 16 µg/mL | GM of MIC G+ [13]: 7 µg/mL | Antimicrobial Activity (MIC) Fungi Rh [14]: 32 µg/mL | Selectivity index (SI) G- [15]: > 97 | Selectivity index (SI) G+ [15]: > 164 | Selectivity index (SI) Fungi [15]: > 34 | RBC Tox. (EC50), haemolytic activity [15]: > 1045 µg/mL | Antimicrobial Activity (MIC) Gram + Cg [16]: 4 µg/mL
